{
  "source": "patent US20150335558A1",
  "about": "“NERVE GROWTH INHIBITOR, CUTANEOUS-SENSORY-IRRITATION INHIBITOR, AND MARKER FOR CUTANEOUS-SENSORY-IRRITATION DETECTION” (HOYU CO., LTD., priority 2012, published 2015)",
  "key": {"[1]": {"system": "histamine in mouse epidermis and dermis", "assay": "Amount of histamine in skin of mast cell deficient and normal control mice after SDS (Sample Experiment 1-2)", "type": "in vivo", "conditions": "Day 4, both mast cell deficient and normal control mice, SDS applied group vs solvent control", "description": "Meanwhile, skin was collected from each of the mast cell deficient mice and normal control mice in the 10% SDS aqueous solution application group mentioned above at Day 4 while the mice were under anesthesia after perfusion with a phosphate buffer solution (PBS) using the cardiac blood circulation system (punched out with a biopsy punch in a circular shape of a diameter of 18 mm). The amounts of histamine in the collected skins were measured. In other words, each collected skin was immersed in PBS of 60° C. for 30 secs., then separated into the epidermis and the dermis. Subsequently, the amounts of histamine in the epidermis and the dermis were measured using the measurement kit (histamine enzyme immunoassay kit (Immunotech, Marseilles, France)). To measure the amount of histamine, tissues of both the epidermis and the dermis were pulverized to create tissue suspensions, which were subjected to centrifugation, then supernatants were collected to measure the amounts of histamine in the supernatants."}, "ICR mice": {"system": "ICR mice", "assay": "Scratch bouts of ICR mice after 10% SDS application (Sample Experiment 1-1)", "type": "in vivo, mouse", "conditions": "ICR mice, 10% SDS aqueous solution 50 μL single application to rostral back, Day 0 to Day 4, vs untreated and solvent control", "description": "The present Sample Experiment was conducted using ICR mice, and an anionic surfactant, namely, sodium dodecyl sulfate (SDS), was used as a stimulating substance to analyze the scratch bouts of mice. After SDS had been applied, terfenadine (TRF) was administered as an antihistamine to determine its effect on scratch bouts.\nMale ICR mice at ages of 7 to 8 weeks, purchased from Japan SLC, were used. The mice were given solid feed under free water supply and subjected to preliminary rearing for 7 days or longer under a constant temperature/constant humidity environment with a temperature of 22±2° C., and a humidity of 55±10% before they were used in the test. The mice for use were used in the test at least 3 days after shearing/depilating the rostral back of each mouse. […]\nThe scratch bouts of mice were performed in view of the Kuraishi et al. report. That is, a single mouse was put in each chamber of the 4 divided sections in an acrylic box (13×9×35 cm) to be acclimated for at least an hour, and they were video recorded in an environment without any person for at least an hour a day from the day of applying the above 10% SDS aqueous solution (Day 0) to the 4th day after application (Day 4) to record their movement. Then, by watching the video, the number of scratch bouts against the rostral back by the hind leg was counted. […]"}, "[2]": {"system": "histamine in mouse epidermis and dermis", "assay": "Amount of histamine in ICR mouse skin after SDS (Sample Experiment 1-3)", "type": "in vivo", "conditions": "ICR mice, Day 4, 10% SDS application group vs solvent control", "description": "The present Sample Experiment was conducted using ICR mice, and SDS was used as a stimulating substance. After SDS was applied, the amount of histamine in the skin of each mouse was assessed, and so was the HDC expression amount in the skin of each mouse. The same ICR mice as used in Sample Experiment 1-1 was used. Treatments of the ICR mice, such as preliminary rearing, and the shearing/depilating of the rotal back, were performed similarly to Sample Experiment 1-1. A 10% aqueous solution obtained by dissolving SDS in distilled water was applied to the mouse rostal back as a stimulating substance against the skin similarly to Sample Experiment 1-1. Distilled water was applied to the solvent control group (Vehicle). Skin was collected by operations similar to that mentioned in “Amount of Histamine in Mouse Skin” in Sample Experiment 1-2 from each ICR mouse of the 10% SDS aqueous solution application group and the solvent control group mentioned above after 4 days had passed from application (Day 4). The collected skins were separated into the epidermis and the dermis, and the amounts of histamine in those skins were measured."}},
  "data": [
    {"smiles": "CCCCCCCCCCCCOS(=O)(=O)[O-].[Na+]", "note": "[SDS, sodium dodecyl sulfate]", "values": [
      {"measurement": "amount of histamine in mouse dermis", "setting": "[1]", "result": "barely increased"},
      {"measurement": "amount of histamine in mouse epidermis", "setting": "[1]", "result": "significantly high"},
      {"measurement": "scratch bouts of mice (number in 60 mins.) after stimulating substance", "setting": "ICR mice", "result": "increased significantly over time"},
      {"measurement": "amount of histamine in mouse dermis", "setting": "[2]", "result": "does not differ significantly"},
      {"measurement": "amount of histamine in mouse epidermis", "setting": "[2]", "result": "significantly higher"}
    ]}
  ]
}
